Assay results as given in patent US20220288057A1, “CONJOINT THERAPY FOR TREATING SEIZURE DISORDERS” (XENON PHARMACEUTICALS INC., priority 2021, published 2022).
Read-outs that look alike come from different tables or passages of the source.

How the values were obtained:
[1] = Terminal plasma and brain concentrations in AC-MES studies (UHPLC-MS/MS); type: in vivo, mouse; conditions: CF-1, mouse, in vivo; for Kp at 2 h: read-out: B/P Ratio
Experimental: Sample Collection and Preparation: Mice were anesthetized by isoflurane inhalation (according to SOP TECH-018) until they reached a surgical plane of anesthesia. Then a syringe (1 mL syringe with a 22 gauge needle) was inserted under the sternum into the heart (according to SOP TECH-031). Approximately 0.5 mL of blood was collected, deposited into a K2EDTA tube, and stored on ice. Animals were then euthanized by cervical dislocation. Brains were removed, placed into a pre-weighed vial, and snap frozen on dry ice. At the end of the sample collection, blood was centrifuged at 4000 rpm for 10 minutes at 4° C., and the plasma pipetted into a labeled tube. All samples were stored in a −80° C. freezer until the time of bioanalysis.
Plasma Samples: Extraction of plasma samples was carried out by protein precipitation using acetonitrile. Diluted plasma samples (50 μL) were mixed with 50 μL of internal standard (IS) solution in 1:1 acetonitrile:water (v:v) followed by addition of 200 μL of acetonitrile. Samples were vortexed for 30 seconds, centrifuged at 13,000 rpm for 20 minutes, decanted into a 96-well plate and further centrifuged at 4000 rpm for 20 minutes. The samples were analyzed by ultra-high performance liquid chromatography electrospray ionization tandem mass spectrometry (UHPLC-ESI-MS/MS) as described in the bioanalysis procedure below.
Brain Samples: Prior to extraction, pre-weighed whole brains were homogenized in 1:1 acetonitrile:water (v:v) (2 mL per mouse brain) using an IKA T18 Ultra-Turrax Homogenizer at the setting of 4 for approximately 1 minute. The homogenate was centrifuged at 13,000 rpm for 20 minutes and 50 μL of the supernatant were treated exactly as described in above for plasma samples.
Bioanalysis Procedures: All samples, including plasma and brain homogenate extracts (including calibration standards and quality control (QC) samples prepared in K2EDTA mouse plasma), were extracted by protein precipitation. To each 50 μL aliquot of sample, 50 μL of IS solution (2500 ng/mL of Lacosamide in water:acetonitrile (1:1)) and 50 μL of 6% (v:v) phosphoric acid in water were added, then 200 μL acetonitrile was added. The samples in 1.7 mL tubes were vortex-mixed then centrifuged for 20 minutes at 13,000 rpm. Fifty microliters of the supernatant was mixed with 150 μL of water:acetonitrile (1:1) in a 96 well plate, which was centrifuged post-mixing for 20 minutes at 4000 rpm. The samples were then ready for UHPLC-MS/MS analysis.
Samples were analyzed for Compound A by a research-grade UHPLC-MS/MS method using the conditions listed below.
Samples were analyzed for Lacosamide by a research-grade UHPLC-MS/MS method using the conditions listed below.
At least three QC samples, one at each concentration, had to show back-calculated values within ±20% of their nominal concentrations for the whole sample batch to be valid.
(§1) The Blinding and Randomization, Clinical Observations, AC-MES Assay, Sample Collection and Preparation, Plasma and Brain Samples Analysis, and Bioanalysis Procedures in Example 4 were identical to those used in Example 2.
Sample concentration determination and Data Processing and Analysis in Example 4 was identical to Example 2.

CF-1 mouse = experiment: Clinical observations / behavioral signs in AC-MES studies; type: in vivo; conditions: 2 h
Experimental: Any qualitative changes from normal behavior were recorded.
Five oral (PO) doses of Compound A were each tested in the AC-MES model. Thirty minutes after administration of Compound A at 1 mg/kg (n=8), 3 mg/kg (n=8), 5 mg/kg (n=16), 7.5 mg/kg (n=7), and 10 mg/kg (n=17) via oral gavage to male CF-1 mice (body weights 28.2 to 43.8 g), the mice underwent a 60 Hz corneal electrical stimulus (0.2 seconds duration, 40 mA). This stimulus elicited a tonic hindlimb extension in all vehicle-dosed animals. […] An observational neurological assessment (qualitative test) was also conducted at the time of testing as a tolerability screen. Terminal plasma and brain samples were collected from all animals to obtain the levels of Compound A concentration, and to understand the relationship between efficacy and drug concentration.
as §1

COC[C@@H](NC(C)=O)C(=O)NCc1ccccc1 [Lacosamide, reference compound]
Kp at 2 h ([1]; 6 mg/kg, Study 2A, Lacosamide 6 mg/kg PO, 2 h): 0.54 | concentration at 2 h ([1]; 6 mg/kg, Study 2A, Lacosamide 6 mg/kg PO, 2 h, read-out: Mean Brain): 4.85 µM | concentration at 2 h ([1]; 6 mg/kg, Study 2A, Lacosamide 6 mg/kg PO, 2 h, read-out: Mean Plasma): 9.07 µM | Kp at 2 h ([1]; 6 mg/kg, Study 2D, Lacosamide 6 mg/kg PO, 2 h): 1.15 | concentration at 2 h ([1]; 6 mg/kg, Study 2D, Lacosamide 6 mg/kg PO, 2 h, read-out: Mean Brain): 7.95 µM | concentration at 2 h ([1]; 6 mg/kg, Study 2D, Lacosamide 6 mg/kg PO, 2 h, read-out: Mean Plasma): 6.9 µM | Kp at 2 h ([1]; 8 mg/kg, Study 2A, Lacosamide 8 mg/kg PO, 2 h): 0.58 | concentration at 2 h ([1]; 8 mg/kg, Study 2A, Lacosamide 8 mg/kg PO, 2 h, read-out: Mean Brain): 6.27 µM | concentration at 2 h ([1]; 8 mg/kg, Study 2A, Lacosamide 8 mg/kg PO, 2 h, read-out: Mean Plasma): 10.8 µM | Kp at 2 h ([1]; 10 mg/kg, Study 2B, Lacosamide 10 mg/kg PO, 2 h): 0.21 | concentration at 2 h ([1]; 10 mg/kg, Study 2B, Lacosamide 10 mg/kg PO, 2 h, read-out: Mean Brain): 2.63 µM | concentration at 2 h ([1]; 10 mg/kg, Study 2B, Lacosamide 10 mg/kg PO, 2 h, read-out: Mean Plasma): 12.6 µM | Kp at 2 h ([1]; 10 mg/kg, Study 2C, Lacosamide 10 mg/kg PO, 2 h, alone): 0.28 | concentration at 2 h ([1]; 10 mg/kg, Study 2C, Lacosamide 10 mg/kg PO, 2 h, alone, read-out: Mean Brain): 4.84 µM | concentration at 2 h ([1]; 10 mg/kg, Study 2C, Lacosamide 10 mg/kg PO, 2 h, alone, read-out: Mean Plasma): 17.1 µM | Kp at 2 h ([1]; 20 mg/kg, Study 2D, Lacosamide 20 mg/kg PO, 2 h): 1.12 | concentration at 2 h ([1]; 20 mg/kg, Study 2D, Lacosamide 20 mg/kg PO, 2 h, read-out: Mean Brain): 26.8 µM | concentration at 2 h ([1]; 20 mg/kg, Study 2D, Lacosamide 20 mg/kg PO, 2 h, read-out: Mean Plasma): 23.9 µM | Kp at 2 h ([1]; Study 2C, analyte Lacosamide, 10 mg/kg PO 2 h + Compound A 3 mg/kg PO 0.5 h): 0.29 | concentration at 2 h ([1]; Study 2C, analyte Lacosamide, 10 mg/kg PO 2 h + Compound A 3 mg/kg PO 0.5 h, read-out: Mean Brain): 4.52 µM | concentration at 2 h ([1]; Study 2C, analyte Lacosamide, 10 mg/kg PO 2 h + Compound A 3 mg/kg PO 0.5 h, read-out: Mean Plasma): 15.5 µM | Fraction with Behavioral Signs (CF-1 mouse; Study 2A, Lacosamide 6 mg/kg PO): 0/8 | Fraction with Behavioral Signs (CF-1 mouse; Study 2A, Lacosamide 8 mg/kg PO): 0/8 | Fraction with Behavioral Signs (CF-1 mouse; Study 2B, Lacosamide 10 mg/kg PO): 0/8 | Fraction with Behavioral Signs (CF-1 mouse; Study 2C, Lacosamide 10 mg/kg PO, alone): 0/8 | Fraction with Behavioral Signs (CF-1 mouse; Study 2D, Lacosamide 6 mg/kg PO): 0/8 | Fraction with Behavioral Signs (CF-1 mouse; Study 2D, Lacosamide 20 mg/kg PO): 0/8
